Measurements: patent publication US20250059220A1, “SUBSTITUTED BENZOTHIOPHENE DERIVATIVES AND METHODS OF USE THEREOF” (Merck Sharp & Dohme LLC, priority 2021, published 2025)

Experiments:
human PTPN2 (1-387) = human PTPN2 (1-387) (Homo sapiens (Human), UniProt P17706); test: Human PTPN2 Biochemical Assay; settings: DiFMUP substrate
Protocol: Human PTPN2 Biochemical Assay
Test compounds were dissolved in DMSO, and 10-point serial 3-fold dilution series in DMSO were prepared in Echo Qualified 384-well Polypropylene Microplates (Labcyte, San Jose, CA) (top concentration 50 µM). Assay plates (384-well low volume black plates; Corning #3820, Corning, NY) were prepared by dispensing 50 nL of test compound, and DMSO (for high and low controls) by ECHO acoustic dispenser (Labcyte, San Jose CA). This was followed by addition of 5 μL of 0.2 nM human PTPN2 (1-387) solution (prepared in the assay buffer, 50 mM Tris pH 7.4, 150 mM NaCl, 0.01% Tween20, 0.5 mM dithiothreitol) to all wells except the low control. 5 μl of assay buffer was added into the low control, then the plate was incubated for 30 minutes at room temperature. Subsequently, 5 μl of 100 µM DiFMUP (6,8-difluoro-4-methylumbelliferyl phosphate) solution (prepared in assay buffer from 10 mM stock in DMSO) was added to the assay plate and incubated for 1 hour at room temperature. For detection, assay plates were read on SpectraMax Microplate Reader (Molecular Devices), with Excitation wavelength=360 nm and Emission wavelength=460 nm. Test compound effects were normalized to the window defined by the controls, DMSO/buffer, and DMSO/50 pM human PTPN2. Calculated % effects were fit using a 4-parameter algorithm, and EC50 was reported.

human PTPN1 (1-435) = human PTPN1 (1-435) (Homo sapiens (Human), UniProt P18031); test: Human PTPN1 Biochemical Assay; settings: DiFMUP substrate, read-out: PTP1B IC50
Sequence of human PTPN1 (1-435) (P18031 whole entry): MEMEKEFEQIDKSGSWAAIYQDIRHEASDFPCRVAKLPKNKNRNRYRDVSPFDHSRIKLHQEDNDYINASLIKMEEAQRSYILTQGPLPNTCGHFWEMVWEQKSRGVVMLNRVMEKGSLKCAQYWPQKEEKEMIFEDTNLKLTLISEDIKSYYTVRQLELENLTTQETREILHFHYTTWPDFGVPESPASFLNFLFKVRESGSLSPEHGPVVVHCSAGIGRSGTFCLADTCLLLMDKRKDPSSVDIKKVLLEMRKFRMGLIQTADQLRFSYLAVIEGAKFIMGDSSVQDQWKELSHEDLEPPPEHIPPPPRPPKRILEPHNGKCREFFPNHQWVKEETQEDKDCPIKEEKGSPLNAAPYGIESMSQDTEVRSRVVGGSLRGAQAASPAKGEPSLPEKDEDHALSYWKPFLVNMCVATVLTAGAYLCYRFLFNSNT
Protocol: Human PTPN1 Biochemical Assay
Test compounds were dissolved in DMSO, and 10-point serial 3-fold dilution series in DMSO were prepared in Echo Qualified 384-well Polypropylene Microplates (Labcyte, San Jose, CA) (top concentration 50 µM). […] 5 μl of assay buffer was added into the low control. The plate was incubated for 30 minutes at room temperature. Subsequently, 5 μl of 100 µM DiFMUP (6,8-difluoro-4-methylumbelliferyl phosphate) solution (prepared in assay buffer from 10 mM stock in DMSO) was added to the assay plate and incubated for 1 hour at room temperature. For detection, assay plates were read on SpectraMax Microplate Reader (Molecular Devices), with Excitation wavelength=360 nm and Emission wavelength=460 nm. […] Calculated % effects were fit using a 4-parameter algorithm, and EC50 was reported.

Sequence of human PTPN2 (1-387) (P17706 other isoform, or with tags, fused parts or gaps): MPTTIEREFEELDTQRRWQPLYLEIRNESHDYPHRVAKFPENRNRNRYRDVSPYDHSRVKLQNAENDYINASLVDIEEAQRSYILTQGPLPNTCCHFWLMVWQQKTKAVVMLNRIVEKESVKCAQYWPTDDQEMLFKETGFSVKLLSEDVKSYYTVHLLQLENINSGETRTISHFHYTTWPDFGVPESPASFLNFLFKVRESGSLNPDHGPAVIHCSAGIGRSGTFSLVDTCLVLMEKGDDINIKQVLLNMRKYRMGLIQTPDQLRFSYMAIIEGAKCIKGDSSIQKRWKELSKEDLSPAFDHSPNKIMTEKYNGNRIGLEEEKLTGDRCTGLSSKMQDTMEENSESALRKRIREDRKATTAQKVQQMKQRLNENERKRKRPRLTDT

IC50 (human PTPN2 (1-387))	IC50 (human PTPN1 (1-435))	Structure (SMILES)
1.88 µM	1.62 µM	O=C(NC(c1cccnc1)C(F)(F)F)c1ccc2sc(C(F)(F)P(=O)(O)O)c(Br)c2c1 (single isomer, unassigned) [Compound 222a, (S or R)-((3-bromo-5-((2,2,2-trifluoro-1-(pyridin-3-yl)ethyl)carbamoyl)benzo[b]thiophen-2-yl)difluoromethyl)phosphonic acid]
0.0089 µM	0.0098 µM	[2H]C([2H])([2H])NC(=O)c1cc(OCCCS(C)(=O)=O)c2sc(C(F)(F)P(=O)(O)O)c(Br)c2c1 [Compound 304]
0.0846 µM	0.118 µM	NC(=O)c1cc(OCC2CCC(F)(F)CC2)c2sc(C(F)(F)P(=O)(O)O)c(Br)c2c1 [Compound 253]
2.2 µM	2.41 µM	CC(NC(=O)c1ccc2sc(C(F)(F)P(=O)(O)O)c(Br)c2c1)c1cccnn1 (single isomer, unassigned) [Compound 225, (R or S)-((3-bromo-5-((1-(pyridazin-3-yl)ethyl)carbamoyl)benzo[b]thiophen-2-yl)difluoromethyl)phosphonic acid]
0.0067 µM	0.0148 µM	CS(=O)(=O)c1ccc(COc2cc(C(N)=O)cc3c(Br)c(C(F)(F)P(=O)(O)O)sc23)c(C#N)c1 [Compound 463, ((3-bromo-5-carbamoyl-7-((2-cyano-4-(methylsulfonyl)benzyl)oxy)benzo[b]thiophen-2-yl)difluoromethyl)phosphonic acid]
0.0103 µM	0.0137 µM	N#Cc1c(C(F)(F)P(=O)(O)O)sc2c(OCC3CC3(F)F)cc(C(N)=O)cc12 (stereo not drawn) [Compound 426]
0.0228 µM	0.0308 µM	N#Cc1c(C(F)(F)P(=O)(O)O)sc2c(OCC3CC3(F)F)cc(C(N)=O)cc12 (stereo not drawn) [Compound 425]
0.771 µM	0.707 µM	O=C(NC(c1cccnc1)C(F)(F)F)c1ccc2sc(C(F)(F)P(=O)(O)O)c(Br)c2c1 (single isomer, unassigned) [Compound 222b, (R or S)-((3-bromo-5-((2,2,2-trifluoro-1-(pyridin-3-yl)ethyl)carbamoyl)benzo[b]thiophen-2-yl)difluoromethyl)phosphonic acid]
0.0044 µM	0.0362 µM	NC(=O)c1cc(OCc2ccc(-c3cccnc3)cc2)c2sc(C(F)(F)P(=O)(O)O)c(Br)c2c1 [Compound 401]
0.227 µM	0.259 µM	N#CCOc1cc(C(N)=O)cc2c(Br)c(C(F)(F)P(=O)(O)O)sc12 [Compound 244]
0.0096 µM	0.0697 µM	NC(=O)c1cc(OCc2ccc(-c3nccs3)cc2)c2sc(C(F)(F)P(=O)(O)O)c(Br)c2c1 [Compound 354]
0.106 µM	0.11 µM	NC(=O)c1cc(OCCCOC(F)(F)F)c2sc(C(F)(F)P(=O)(O)O)c(Br)c2c1 [Compound 252]
0.0141 µM	0.0232 µM	CC(C)(O)CCCOc1cc(C(N)=O)cc2c(C(F)(F)F)c(C(F)(F)P(=O)(O)O)sc12 [Compound 456, ((5-carbamoyl-7-((4-hydroxy-4-methylpentyl)oxy)-3-(trifluoromethyl)benzo[b]thiophen-2-yl)difluoromethyl)phosphonic acid]
0.0159 µM	0.0205 µM	NC(=O)c1cc(OCc2ccc(F)c(F)c2)c2sc(C(F)(F)P(=O)(O)O)c(Br)c2c1 [Compound 356]
0.0554 µM	0.044 µM	CNC(=O)c1cc(OCCCNS(C)(=O)=O)c2sc(C(F)(F)P(=O)(O)O)c(Br)c2c1 [Compound 323]
0.13 µM	0.207 µM	Cc1c(C(F)(F)P(=O)(O)O)sc2c(OCC3CC3(F)F)cc(C(N)=O)cc12 (stereo not drawn) [Compound 435]
0.12 µM	0.14 µM	NC(=O)c1cc(CCCCS(N)(=O)=O)c2sc(C(F)(F)P(=O)(O)O)c(Br)c2c1 [Compound 311]
17.1 µM	8.98 µM	N#Cc1ccc2c(Br)c(C(F)(F)P(=O)(O)O)sc2c1 [Compound 299, ((3-bromo-6-cyanobenzo[b]thiophen-2-yl)difluoromethyl)phosphonic acid]
0.0886 µM	0.16 µM	NC(=O)c1cc(OCc2ccc(F)cc2C(F)(F)F)c2sc(C(F)(F)P(=O)(O)O)c(Br)c2c1 [Compound 336]
0.05 µM	0.054 µM	CS(=O)(=O)N1CCC(Oc2cc(C(N)=O)cc3c(Br)c(C(F)(F)P(=O)(O)O)sc23)C1 (stereo not drawn) [Compound 248]
0.0964 µM	0.139 µM	NC(=O)c1cc(OCCC2CC2)c2sc(C(F)(F)P(=O)(O)O)c(Br)c2c1 [Compound 255]
0.546 µM	0.315 µM	O=C(NCc1cccnn1)c1cc(Cl)c2sc(C(F)(F)P(=O)(O)O)c(Br)c2c1 [Compound 160]
0.00804 µM	0.009 µM	O=C(NC1CC(F)(F)C1)c1cc(OCCCC(F)(F)F)c2sc(C(F)(F)P(=O)(O)O)c(Br)c2c1 [Compound 206]
0.0025 µM	0.0029 µM	NC(=O)c1cc(OCc2ccc(S(N)(=O)=O)nc2)c2sc(C(F)(F)P(=O)(O)O)c(Br)c2c1 [Compound 380]
0.231 µM	0.097 µM	NC(=O)c1cc(OC[C@@H]2CC[C@H]2C(F)(F)F)c2sc(C(F)(F)P(=O)(O)O)c(Br)c2c1 [Compound 279]

Continued, molecule first:

Structure (SMILES)	IC50 (human PTPN2 (1-387))	IC50 (human PTPN1 (1-435))
O=P(O)(O)C(F)(F)c1sc2c(OCCCC(F)(F)F)cccc2c1Br [Compound 410, ((3-bromo-7-(4,4,4-trifluorobutoxy)benzo[b]thiophen-2-yl)difluoromethyl)phosphonic acid]	0.225 µM	0.281 µM
O=C(Nc1ccccc1F)c1ccc2sc(C(F)(F)P(=O)(O)O)c(Br)c2c1 [Compound 32]	1.89 µM	1.31 µM
CC(NC(=O)c1ccc2sc(C(F)(F)P(=O)(O)O)c(Br)c2c1)c1ccccc1-n1cccn1 (stereo not drawn) [Compound 113]	4.17 µM	4.08 µM
N#Cc1ccc2c(c1)CC(NC(=O)c1ccc3sc(C(F)(F)P(=O)(O)O)c(Br)c3c1)C2 (stereo not drawn) [Compound 83]	2.01 µM	1.63 µM
COC1CC(NC(=O)c2ccc3sc(C(F)(F)P(=O)(O)O)c(Br)c3c2)C1 (stereo not drawn) [Compound 40]	5.78 µM	4.2 µM
O=C(NC1COc2ccccc2C1)c1ccc2sc(C(F)(F)P(=O)(O)O)c(Br)c2c1 (stereo not drawn) [Compound 110]	3.56 µM	3.2 µM
O=C(NCc1cncc(F)c1)c1ccc2sc(C(F)(F)P(=O)(O)O)c(Br)c2c1 [Compound 135]	1.9 µM	1.92 µM
COc1cccc(NC(=O)c2ccc3sc(C(F)(F)P(=O)(O)O)c(C#N)c3c2)c1 [Compound 5]	0.896 µM	1.13 µM
O=C(NCc1cnn2ccccc12)c1ccc2sc(C(F)(F)P(=O)(O)O)c(Br)c2c1 [Compound 22]	2.59 µM	1.99 µM
CC(NC(=O)c1ccc2sc(C(F)(F)P(=O)(O)O)c(Br)c2c1)c1ccc2c(c1)OCCO2 (stereo not drawn) [Compound 80]	1.89 µM	2.13 µM
Cc1cnc(F)c(CNC(=O)c2ccc3sc(C(F)(F)P(=O)(O)O)c(Br)c3c2)c1 [Compound 183]	2 µM	1.41 µM
O=C(NC1CCCN(Cc2ccccc2F)C1)c1ccc2sc(C(F)(F)P(=O)(O)O)c(Br)c2c1 (stereo not drawn) [Compound 68]	4.24 µM	3.77 µM
C[C@@H](NC(=O)c1ccc2sc(C(F)(F)P(=O)(O)O)c(Br)c2c1)c1ncc(F)cn1 [Compound 182]	5.08 µM	2.65 µM
CC(NC(=O)c1ccc2sc(C(F)(F)P(=O)(O)O)c(Br)c2c1)c1cccc(OC(F)(F)F)c1 (stereo not drawn) [Compound 102]	2.46 µM	2.88 µM
O=C(N[C@@H]1CCCC[C@H]1OCc1ccccc1)c1ccc2sc(C(F)(F)P(=O)(O)O)c(Br)c2c1 [Compound 75]	2.7 µM	1.85 µM
O=C(N[C@H]1CCN(C(=O)C2CC2)C1)c1ccc2sc(C(F)(F)P(=O)(O)O)c(Br)c2c1 [Compound 116]	1.06 µM	0.987 µM
O=C(NC1CCS(=O)(=O)CC1)c1ccc2sc(C(F)(F)P(=O)(O)O)c(Br)c2c1 [Compound 128]	4.9 µM	4.08 µM
N#Cc1c(C(F)(F)P(=O)(O)O)sc2ccc(C(=O)Nc3ccccc3)cc12 [Compound 3, ((3-cyano-5-(phenylcarbamoyl)benzo[b]thiophen-2-yl)difluoromethyl)phosphonic acid]	1.02 µM	1.13 µM
O=C(NCc1n[nH]c(=O)[nH]1)c1ccc2sc(C(F)(F)P(=O)(O)O)c(Br)c2c1 [Compound 187]	1.86 µM	0.961 µM
NC(=O)c1cc(OCCC(F)(F)C(F)(F)C(F)F)c2sc(C(F)(F)P(=O)(O)O)c(Br)c2c1 [Compound 291]	0.0268 µM	0.021 µM
